Test results: patent publication US20240425523A1, “Compounds for the Degradation of EGFR Kinase” (Beigene Switzerland GMBH, priority 2023, published 2024)

What was measured:
[1] = biological target: T1, EGFR L858R (BaF3-L858R cells) (Homo sapiens, UniProt P00533, L858R); test: Cell degradation of EGFR, HTRF assay, BaF3-L858R cells; format: cell-based; conditions: 16 h treatment; for DC50: EGFR degradation; for Dmax: maximum percentage of degradation
T1 construct: host or cells: BaF3
Protocol: BaF3-L858R (abbv. L858R) cell were purchased from Kangyuan Bochuang Biotechnology (Beijing) Co., Ltd.
(§1) H1975-#8 and BaF3-L858R cells are treated with compounds diluted in 0.1% DMSO cell culture medium on day 2, incubate for 16 h, 37° C., 5% CO2. the final concentration of compounds in all assay is start with 10 uM, 5-fold dilution, total 8 doses were included.
(§2) After 16 h treatment, for H1975-#8 cells, add 100 ul HTRF 1× lysis buffer to each well; for BaF3-L858R cells, add 20 μl 4× lysis buffer to each well; seal the plate and incubate 1 hour at room temperature on a plate shaker; Once the cells are lysed, 16 μL of cell lysate are transferred to a PE 384-well HTRF detection plate; 4 μL of pre-mixed HTRF antibodies are added to each well; Cover the plate with a plate sealer, spin 1000 rpm for 1 min, Incubate overnight at room temperature; Read on BMG PheraStar with HTRF protocol (337 nm-665 nm-620 nm).
(§3) High control=Cell group with added DMSO and without compound, indicating microplate readings without EGFR degradation;
(§4) Dmax is the maximum percentage of inhibition (degradation).
(§5) The IC50 (DC50) value of a compound can be obtained by fitting the following equation
(§6) Y=Bottom+(TOP−Bottom)/(1+((IC50/X)^hillslope))
(§7) Wherein, X and Y are known values, and IC50, Hillslope, Top and Bottom are the parameters obtained by fitting with software. […] The experimental data were fitted by calculating and analyzing with Dotmatics data analysis software.

[2] = biological target: T2, EGFR-L858R/C797S (H1975-clone #8 cells) (Homo sapiens, UniProt P00533, C797S/L858R); test: Cell degradation of EGFR, HTRF assay, H1975-clone#8 (L858R/C797S) cells; format: cell-based; conditions: 16 h treatment; for DC50: EGFR degradation; for Dmax: maximum percentage of degradation
T2 construct: expressed in transfected cells; host or cells: H1975 (endogenous EGFR knocked out, clone #8)
T2 sequence (P00533 25-1210 C797S/L858R): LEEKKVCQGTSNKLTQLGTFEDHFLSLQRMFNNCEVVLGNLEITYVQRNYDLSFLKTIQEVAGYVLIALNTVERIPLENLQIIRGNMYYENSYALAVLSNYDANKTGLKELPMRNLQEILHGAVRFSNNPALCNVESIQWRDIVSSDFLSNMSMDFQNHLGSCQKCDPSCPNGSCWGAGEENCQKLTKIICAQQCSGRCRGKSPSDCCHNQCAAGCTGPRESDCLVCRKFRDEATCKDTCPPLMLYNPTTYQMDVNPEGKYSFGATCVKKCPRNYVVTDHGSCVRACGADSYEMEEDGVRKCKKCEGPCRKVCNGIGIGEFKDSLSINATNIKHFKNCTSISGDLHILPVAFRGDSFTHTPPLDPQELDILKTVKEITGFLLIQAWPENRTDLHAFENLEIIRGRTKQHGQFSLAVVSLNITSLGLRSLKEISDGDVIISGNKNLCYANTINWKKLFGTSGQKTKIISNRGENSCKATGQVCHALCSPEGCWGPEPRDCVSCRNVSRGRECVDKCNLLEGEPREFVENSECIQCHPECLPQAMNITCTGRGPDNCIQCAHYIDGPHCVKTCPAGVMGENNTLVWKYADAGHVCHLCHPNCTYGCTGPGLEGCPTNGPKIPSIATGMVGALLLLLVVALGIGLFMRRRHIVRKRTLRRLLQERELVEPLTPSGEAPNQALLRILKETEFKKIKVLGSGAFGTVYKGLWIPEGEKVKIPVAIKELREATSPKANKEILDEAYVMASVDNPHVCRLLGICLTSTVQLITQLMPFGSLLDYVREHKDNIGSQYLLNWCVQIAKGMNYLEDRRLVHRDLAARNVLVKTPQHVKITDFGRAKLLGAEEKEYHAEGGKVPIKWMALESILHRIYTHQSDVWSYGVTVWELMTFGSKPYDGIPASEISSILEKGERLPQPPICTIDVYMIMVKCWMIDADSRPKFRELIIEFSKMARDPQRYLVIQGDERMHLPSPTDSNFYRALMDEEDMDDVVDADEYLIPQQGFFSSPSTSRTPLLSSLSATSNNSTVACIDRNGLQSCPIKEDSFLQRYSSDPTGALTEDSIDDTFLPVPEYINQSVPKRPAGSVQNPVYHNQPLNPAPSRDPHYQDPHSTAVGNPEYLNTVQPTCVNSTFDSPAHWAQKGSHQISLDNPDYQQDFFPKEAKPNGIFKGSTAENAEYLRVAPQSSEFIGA
Protocol: The EGFR over-expressed cells then underwent knockout, in which the EGFR targeting sgRNA was designed to only target the endogenous EGFR copies and preserve the exogenous EGFR copies. Followed by the knockout, the edited H1975 cells were seeded in 96 well plates at the concentration of […], cultured for about 2 weeks to allow single clones formation. The formed clones were screened by DNA sequencing and whole exon sequencing analysis for the desired edition.
as §1, §2, §3, §4, §5, §6, §7

T1 sequence (P00533 25-1210 L858R): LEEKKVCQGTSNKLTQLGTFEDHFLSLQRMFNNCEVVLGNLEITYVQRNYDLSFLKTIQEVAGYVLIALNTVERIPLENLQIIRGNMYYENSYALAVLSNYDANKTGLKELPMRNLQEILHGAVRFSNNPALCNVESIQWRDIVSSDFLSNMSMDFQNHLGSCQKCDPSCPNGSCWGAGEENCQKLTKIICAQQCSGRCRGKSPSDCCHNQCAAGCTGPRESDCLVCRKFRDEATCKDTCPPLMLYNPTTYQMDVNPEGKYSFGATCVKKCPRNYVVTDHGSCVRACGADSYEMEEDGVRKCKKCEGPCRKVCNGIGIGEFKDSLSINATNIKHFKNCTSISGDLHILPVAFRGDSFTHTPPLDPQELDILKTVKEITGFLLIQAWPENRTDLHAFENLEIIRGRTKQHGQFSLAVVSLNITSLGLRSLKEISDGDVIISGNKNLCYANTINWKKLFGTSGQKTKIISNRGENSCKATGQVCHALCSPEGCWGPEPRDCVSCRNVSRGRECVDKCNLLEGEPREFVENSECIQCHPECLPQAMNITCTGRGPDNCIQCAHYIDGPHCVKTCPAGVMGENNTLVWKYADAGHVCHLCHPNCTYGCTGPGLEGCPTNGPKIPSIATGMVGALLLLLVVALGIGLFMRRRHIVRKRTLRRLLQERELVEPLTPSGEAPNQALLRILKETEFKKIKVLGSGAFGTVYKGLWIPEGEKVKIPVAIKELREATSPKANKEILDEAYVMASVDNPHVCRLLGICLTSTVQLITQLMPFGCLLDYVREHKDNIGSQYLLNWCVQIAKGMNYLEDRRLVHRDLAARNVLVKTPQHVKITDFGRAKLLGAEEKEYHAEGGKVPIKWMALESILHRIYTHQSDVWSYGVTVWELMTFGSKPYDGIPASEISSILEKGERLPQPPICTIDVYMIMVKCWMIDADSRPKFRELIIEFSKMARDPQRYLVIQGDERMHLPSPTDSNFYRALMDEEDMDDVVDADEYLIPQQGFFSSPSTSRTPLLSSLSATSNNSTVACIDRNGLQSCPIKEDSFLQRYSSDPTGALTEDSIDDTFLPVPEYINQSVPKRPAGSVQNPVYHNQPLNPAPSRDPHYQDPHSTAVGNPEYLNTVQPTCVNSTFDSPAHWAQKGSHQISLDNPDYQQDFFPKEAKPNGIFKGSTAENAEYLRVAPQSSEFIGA

SMILES: Cc1cc2cc(n1)-c1cnn(C)c1OC[C@H]1CC[C@H](C1)CN1/C(=N/C2=O)Nc2ccc(N3CCN(C4CCN(c5cc(F)c([C@H]6CCC(=O)NC6=O)c(F)c5)CC4)CC3)cc21 [Example 1, (R)-3-(4-(4-(4-((7^1R,7^3S,E)-1^1,2^6-dimethyl-3-oxo-5^2,5^3-dihydro-1^1H,5^1H-9-oxa-4-aza-5(2,1)-benzo[d]imidazola-2(2,4)-pyridina-1(4,5)-pyrazola-7(1,3)-cyclopentanacyclononaphane-5^6-yl)piperazin-1-yl)piperidin-1-yl)-2,6-difluorophenyl)piperidine-2,6-dione]
- DC50 [1]: 3.25 nM
- Dmax [1]: 89.7%
- DC50 [2]: 1.41 nM
- Dmax [2]: 79.2%

SMILES: Cc1cc2cc(n1)-c1cnn(C)c1OC[C@H]1CC[C@H](C1)CN1/C(=N/C2=O)Nc2ccc(N3CCN(C4CCN(c5ccc(C6CCC(=O)NC6=O)nc5C)CC4)CC3)cc21 (stereo partly shown) [Example 2, 3-(5-(4-(4-((7^1R,7^3S,E)-1^1,2^6-dimethyl-3-oxo-5^2,5^3-dihydro-1^1H,5^1H-9-oxa-4-aza-5(2,1)-benzo[d]imidazola-2(2,4)-pyridina-1(4,5)-pyrazola-7(1,3)-cyclopentanacyclononaphane-5^6-yl)piperazin-1-yl)piperidin-1-yl)-6-methylpyridin-2-yl)piperidine-2,6-dione]
- DC50 [1]: 0.879 nM
- Dmax [1]: 87.2%
- DC50 [2]: 1.38 nM
- Dmax [2]: 72.6%

SMILES: Cc1cc2cc(n1)-c1cnn(C)c1OC[C@@H]1CC[C@@H](C1)CN1/C(=N/C2=O)Nc2ccc(N3CCN(C4CCN(c5ccc(C6CCC(=O)NC6=O)nc5C)CC4)CC3)cc21 (stereo partly shown) [Example 3, 3-(5-(4-(4-((7^1S,7^3R,E)-1^1,2^6-dimethyl-3-oxo-5^2,5^3-dihydro-1^1H,5^1H-9-oxa-4-aza-5(2,1)-benzo[d]imidazola-2(2,4)-pyridina-1(4,5)-pyrazola-7(1,3)-cyclopentanacyclononaphane-5^6-yl)piperazin-1-yl)piperidin-1-yl)-6-methylpyridin-2-yl)piperidine-2,6-dione]
- DC50 [1]: 20.1 nM
- Dmax [1]: 72.7%
- DC50 [2]: 16.4 nM
- Dmax [2]: 44%

SMILES: CCc1nc(C2CCC(=O)NC2=O)ccc1N1CCC(N2CCN(c3ccc4c(c3)N3C[C@@H]5CC[C@H](COc6c(cnn6C)-c6cc(cc(C)n6)C(=O)/N=C/3N4)C5)CC2)CC1 (stereo partly shown) [Example 4, 3-(5-(4-(4-((7^1R,7^3S,E)-1^1,2^6-dimethyl-3-oxo-5^2,5^3-dihydro-1^1H,5^1H-9-oxa-4-aza-5(2,1)-benzo[d]imidazola-2(2,4)-pyridina-1(4,5)-pyrazola-7(1,3)-cyclopentanacyclononaphane-5^6-yl)piperazin-1-yl)piperidin-1-yl)-6-ethylpyridin-2-yl)piperidine-2,6-dione]
- DC50 [1]: 1.23 nM
- Dmax [1]: 87.6%
- DC50 [2]: 2.34 nM
- Dmax [2]: 75.4%

SMILES: Cc1cc2cc(n1)-c1cnn(C)c1OC[C@H]1CC[C@H](C1)CN1/C(=N/C2=O)Nc2ccc(N3CCN(C4CCN(c5cccc6c5C(C)(C)C(=O)N6C5CCC(=O)NC5=O)CC4)CC3)cc21 (stereo partly shown) [Example 5, 3-(4-(4-(4-((7^1R,7^3S,E)-1^1,2^6-dimethyl-3-oxo-5^2,5^3-dihydro-1^1H,5^1H-9-oxa-4-aza-5(2,1)-benzo[d]imidazola-2(2,4)-pyridina-1(4,5)-pyrazola-7(1,3)-cyclopentanacyclononaphane-5^6-yl)piperazin-1-yl)piperidin-1-yl)-3,3-dimethyl-2-oxoindolin-1-yl)piperidine-2,6-dione]
- DC50 [1]: 1.01 nM
- Dmax [1]: 84.4%
- DC50 [2]: 0.856 nM
- Dmax [2]: 75.7%

SMILES: Cc1cc2cc(n1)-c1cnn(C)c1OC[C@H]1CC[C@H](C1)CN1/C(=N/C2=O)Nc2ccc(N3CCN(C4CCN(c5cc(F)c(C6CCC(=O)NC6=O)nc5C)CC4)CC3)cc21 (stereo partly shown) [Example 6, 3-(5-(4-(4-((7^1R,7^3S,E)-1^1,2^6-dimethyl-3-oxo-5^2,5^3-dihydro-1^1H,5^1H-9-oxa-4-aza-5(2,1)-benzo[d]imidazola-2(2,4)-pyridina-1(4,5)-pyrazola-7(1,3)-cyclopentanacyclononaphane-5^6-yl)piperazin-1-yl)piperidin-1-yl)-3-fluoro-6-methylpyridin-2-yl)piperidine-2,6-dione]
- DC50 [1]: 3.1 nM
- Dmax [1]: 101%
- DC50 [2]: 1.2 nM
- Dmax [2]: 86.6%

SMILES: Cc1cc2cc(n1)-c1cnn(C)c1OC[C@H]1CC[C@H](C1)CN1/C(=N/C2=O)Nc2ccc(N3CCN(CCc4c(C)cc(C5CCC(=O)NC5=O)nc4C)CC3)cc21 (stereo partly shown) [Example 7, 3-(5-(2-(4-((7^1R,7^3S,E)-1^1,2^6-dimethyl-3-oxo-5^2,5^3-dihydro-1^1H,5^1H-9-oxa-4-aza-5(2,1)-benzo[d]imidazola-2(2,4)-pyridina-1(4,5)-pyrazola-7(1,3)-cyclopentanacyclononaphane-5^6-yl)piperazin-1-yl)ethyl)-4,6-dimethylpyridin-2-yl)piperidine-2,6-dione]
- DC50 [1]: 0.631 nM
- Dmax [1]: 99.4%
- DC50 [2]: 2.03 nM
- Dmax [2]: 45.4%

SMILES: Cc1cc2cc(n1)-c1cnn(C)c1OC[C@H]1CC[C@H](C1)CN1/C(=N/C2=O)Nc2ccc(N3CCN(CC4CN(c5c(C)cc(C6CCC(=O)NC6=O)nc5C)C4)CC3)cc21 (stereo partly shown) [Example 8, 3-(5-(3-((4-((7^1R,7^3S,E)-1^1,2^6-dimethyl-3-oxo-5^2,5^3-dihydro-1^1H,5^1H-9-oxa-4-aza-5(2,1)-benzo[d]imidazola-2(2,4)-pyridina-1(4,5)-pyrazola-7(1,3)-cyclopentanacyclononaphane-5^6-yl)piperazin-1-yl)methyl)azetidin-1-yl)-4,6-dimethylpyridin-2-yl)piperidine-2,6-dione]
- DC50 [1]: 3.2 nM
- Dmax [1]: 64%
- DC50 [2]: 3.18 nM
- Dmax [2]: 74.2%

SMILES: COC[C@@H]1CN(c2ccc3c(c2)N2C[C@@H]4CC[C@H](COc5c(cnn5C)-c5cc(cc(C)n5)C(=O)/N=C/2N3)C4)CCN1C1CCN(c2cc(F)c([C@H]3CCC(=O)NC3=O)c(F)c2)CC1 [Example 9, (R)-3-(4-(4-((S)-4-((7^1R,7^3S,E)-1^1,2^6-dimethyl-3-oxo-5^2,5^3-dihydro-1^1H,5^1H-9-oxa-4-aza-5(2,1)-benzo[d]imidazola-2(2,4)-pyridina-1(4,5)-pyrazola-7(1,3)-cyclopentanacyclononaphane-5^6-yl)-2-(methoxymethyl)piperazin-1-yl)piperidin-1-yl)-2,6-difluorophenyl)piperidine-2,6-dione]
- DC50 [1]: 6.11 nM
- Dmax [1]: 86.6%
- DC50 [2]: 4.28 nM
- Dmax [2]: 71.7%

SMILES: Cc1cc2cc(n1)-c1cnn(C)c1OC[C@H]1CC[C@H](C1)CN1/C(=N/C2=O)Nc2ccc(N3CCN(C4CCN(c5cc(F)c([C@H]6CCC(=O)NC6=O)c(F)c5)CC4)CC34COC4)cc21 [Example 10, (R)-3-(4-(4-(5-((7^1R,7^3S,E)-1^1,2^6-dimethyl-3-oxo-5^2,5^3-dihydro-1^1H,5^1H-9-oxa-4-aza-5(2,1)-benzo[d]imidazola-2(2,4)-pyridina-1(4,5)-pyrazola-7(1,3)-cyclopentanacyclononaphane-5^6-yl)-2-oxa-5,8-diazaspiro[3.5]nonan-8-yl)piperidin-1-yl)-2,6-difluorophenyl)piperidine-2,6-dione]
- DC50 [1]: 4.07 nM
- Dmax [1]: 73%
- DC50 [2]: 3.15 nM
- Dmax [2]: 66.8%
